Data published in patent publication US20230015478A1, “GLP-1 RECEPTOR AGONISTS HAVING IMPROVED PHARMACOLOGICAL AND DRUG DELIVERY PROPERTIES” (priority 2021, published 2023).
Read-outs that look alike come from different tables or passages of the source. Each block holds one compound with its values, some of them ahead of it. Square brackets hold non-standard residues; d marks the D form. Peptide text beside a SMILES is read from it. Bip = N[C@@H](Cc1ccc(-c2ccccc2)cc1)C(=O)O; αMePhe(2-F) = C[C@](N)(Cc1ccccc1F)C(=O)O; hPhe = N[C@@H](CCc1ccccc1)C(=O)O; αMeF = C[C@](N)(Cc1ccccc1)C(=O)O; αMeP = C[C@@]1(C(=O)O)CCCN1; Aib = CC(C)(N)C(=O)O

Molecular target: T1, hGLP1 receptor (Homo sapiens, UniProt P43220)
T1 construct: expressed in transfected cells; host or cells: HEK (human embryonic kidney) cells co-expressing hGLP1 receptor and CRE-Luciferase
T1 sequence (P43220 24-463): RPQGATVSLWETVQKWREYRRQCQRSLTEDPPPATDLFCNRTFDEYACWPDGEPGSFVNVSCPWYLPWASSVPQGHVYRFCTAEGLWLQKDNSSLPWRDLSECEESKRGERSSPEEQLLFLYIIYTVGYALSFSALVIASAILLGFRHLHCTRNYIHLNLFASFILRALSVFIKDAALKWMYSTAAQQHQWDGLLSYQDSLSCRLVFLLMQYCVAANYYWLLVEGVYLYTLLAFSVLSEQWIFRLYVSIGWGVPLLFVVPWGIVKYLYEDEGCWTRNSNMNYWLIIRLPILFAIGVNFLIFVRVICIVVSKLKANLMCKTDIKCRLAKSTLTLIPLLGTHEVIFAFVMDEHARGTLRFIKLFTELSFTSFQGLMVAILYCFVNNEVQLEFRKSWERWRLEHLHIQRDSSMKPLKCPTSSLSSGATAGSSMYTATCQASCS
Test: cAMP HTRF agonist assay in HEK cells co-expressing hGLP1 receptor and CRE-Luciferase
Assay type: cell-based
Method: Human embryonic kidney cells (HEK) co-expressing the hGLP1 receptor and CRE-Luciferase construct were used to determine agonist potency in this assay. The cells were thawed briefly at 37° C., transferred to a sterile tube and re-suspended in complete media at 37° C. Cells were centrifuged at 1000 rpm for 5 minutes and cells collected; cells were re-suspended in assay buffer consisting of DPBS (GIBCO) with 500 μM of the phosphodiesterase inhibitor IBMX. […] The optimal cell density was determined to be 1000 cells/well; cells were added to wells in 384-well plates containing appropriate pre-prepared dilutions of compounds (test peptides or reference compound exendin-4), sealed and incubated with CO2 for 30 min. Test peptide solutions were diluted from 10 mM stock solutions; for most peptides an initial run was performed in duplicate from a maximal concentration of 1.0 μM, with 11 concentrations tested for each peptide using serial 1:3 dilution from this maximal concentration. […] The agonist assay was a homogeneous time-resolved fluorescence (HTRF) assay (Cisbio).
Following incubation of the cells for 30 minutes with test or reference peptides, 5 μL of the cAMP acceptor cAMP-d2, prepared previously as a working solution from frozen stock (1:20 dilution), was added to each well of the assay plate, along with 5 μL of anti-cAMP antibody-cryptate working solution (diluted 1:20 from frozen stock). The wells were incubated for 1 hour at room temperature, and fluorescence was then read at 665 and 615 nm with an Envision reader with TRF laser. Data were saved and analyzed using Prism software (GraphPad). Concentration-response analysis was performed using 4-parameter logistic fits of the resulting data, and EC50 values obtained for each test and reference compound.

[1] = Table 5, 0% albumin, read-out: cAMP EC50, nM (0% albumin)
[2] = cAMP EC50, nM (0.1% albumin), Table 4, 0.1% albumin
[3] = cAMP EC50, nM (0.1% albumin), Table 6, 0.1% albumin

EC50 [2]: 3.1 nM
SMILES: C[C@@H](O)[C@H](NC(=O)CNC(=O)[C@H](CCC(=O)O)NC(=O)C(C)(C)NC(=O)[C@@H](N)Cc1c[nH]cn1)C(=O)N[C@@](C)(Cc1ccccc1F)C(=O)N[C@@H](CC(N)=O)C(=O)N[C@@H](CO)C(=O)N[C@@H](CC(=O)O)C(=O)N[C@@H](Cc1ccc(-c2ccccc2)cc1)C(=O)N[C@@H](Cc1ccc(-c2ccccc2)cc1)C(N)=O [3-62, H2N-His-Aib-Glu-Gly-Thr-α-MePhe(2-F)-Asn-Ser-Asp-Bip-Bip-C(O)NH2] (H-H[Aib]EGT[αMePhe(2-F)]NSD[Bip][Bip]-NH2)

EC50 [3]: 33.7 nM
SMILES: C[C@@H](O)[C@H](NC(=O)CNC(=O)[C@H](CCC(=O)O)NC(=O)C(C)(C)NC(=O)[C@@H](N)Cc1c[nH]cn1)C(=O)N[C@@](C)(Cc1ccccc1F)C(=O)N[C@H](C(=O)N[C@@H](CO)C(=O)N[C@@H](CC(=O)O)C(=O)N[C@@H](Cc1ccc(-c2ccccc2)cc1)C(=O)N[C@@H](Cc1ccc(-c2ccccc2)cc1)C(=O)NC(C)(C)C(=O)NCC(=O)NCC(=O)N[C@@H](CCCCN)C(N)=O)[C@@H](C)O [4-33, H2N-His-Aib-Glu-Gly-Thr-α-MePhe(2F)-Thr-Ser-Asp-Bip-Bip-Aib-(Gly)2-Lys-NH2] (H-H[Aib]EGT[αMePhe(2-F)]TSD[Bip][Bip][Aib]GGK-NH2)

EC50 [2]: 8.3 nM
SMILES: C[C@@H](O)[C@H](NC(=O)CNC(=O)[C@H](CCC(=O)O)NC(=O)[C@]1(C)CCCN1C(=O)[C@@H](N)Cc1c[nH]cn1)C(=O)N[C@@](C)(Cc1ccccc1)C(=O)N[C@H](C(=O)N[C@@H](CO)C(=O)N[C@@H](CC(=O)O)C(=O)N[C@@H](Cc1ccc(-c2ccccc2)cc1)C(=O)NC(C)(C)C(N)=O)[C@@H](C)O [3-61, H2N-His-α-MePro-Glu-Gly-Thr-α-MePhe-Thr-Ser-Asp-Bip-Aib-C(O)NH2] (H-H[αMeP]EGT[αMeF]TSD[Bip][Aib]-NH2)

More lines, now with the values behind:

SMILES: C[C@@H](O)[C@H](NC(=O)CNC(=O)[C@H](CCC(=O)O)NC(=O)C(C)(C)NC(=O)[C@@H](N)Cc1c[nH]cn1)C(=O)N[C@@](C)(Cc1ccccc1F)C(=O)N[C@H](C(=O)N[C@@H](CO)C(=O)N[C@@H](CC(=O)O)C(=O)N[C@@H](CCc1ccccc1)C(=O)N[C@@H](Cc1ccc(-c2ccccc2)cc1)C(N)=O)[C@@H](C)O [1-3, H2N-His-Aib-Glu-Gly-Thr-α-MePhe(2-F)-Thr-Ser-Asp-Hph-Bip-C(O)NH2] (H-H[Aib]EGT[αMePhe(2-F)]TSD[hPhe][Bip]-NH2)
EC50 [1]: 11 nM

SMILES: C[C@@H](O)[C@H](NC(=O)CNC(=O)[C@H](CCC(=O)O)NC(=O)C(C)(C)NC(=O)[C@@H](N)Cc1c[nH]cn1)C(=O)N[C@@](C)(Cc1ccccc1F)C(=O)N[C@H](C(=O)N[C@@H](CO)C(=O)N[C@@H](CC(=O)O)C(=O)N[C@@H](Cc1ccc(-c2ccccc2)cc1)C(=O)N[C@@H](CCc1ccccc1)C(N)=O)[C@@H](C)O [1-4, H2N-His-Aib-Glu-Gly-Thr-α-MePhe(2-F)-Thr-Ser-Asp-Bip-Hph-C(O)NH2] (H-H[Aib]EGT[αMePhe(2-F)]TSD[Bip][hPhe]-NH2)
EC50 [1]: 11 nM
EC50 [3]: 11 nM

SMILES: C[C@@H](O)[C@H](NC(=O)CNC(=O)[C@H](CCC(=O)O)NC(=O)C(C)(C)NC(=O)[C@@H](N)Cc1c[nH]cn1)C(=O)NC(C)(C)C(=O)N[C@H](C(=O)N[C@@H](CO)C(=O)N[C@@H](CC(=O)O)C(=O)N[C@@H](Cc1ccc(-c2ccccc2)cc1)C(=O)N[C@@H](Cc1ccc(-c2ccccc2)cc1)C(N)=O)[C@@H](C)O [3-18, H2N-His-Aib-Glu-Gly-Thr-Aib-Thr-Ser-Asp-Bip-Bip-C(O)NH2] (H-H[Aib]EGT[Aib]TSD[Bip][Bip]-NH2)
EC50 (cAMP EC50, nM (0.1% albumin), Table 1, 0.1% albumin): 152 nM

SMILES: C[C@@H](O)[C@H](NC(=O)CNC(=O)[C@H](CCC(=O)O)NC(=O)[C@@H]1CCCN1C(=O)[C@@H](N)Cc1c[nH]cn1)C(=O)N[C@@](C)(Cc1ccccc1F)C(=O)N[C@H](C(=O)N[C@@H](CO)C(=O)N[C@@H](CC(=O)O)C(=O)N[C@@H](Cc1ccc(-c2ccccc2)cc1)C(=O)N[C@@H](Cc1ccc(-c2ccccc2)cc1)C(N)=O)[C@@H](C)O [3-38, H2N-His-Pro-Glu-Gly-Thr-α-MePhe(2-F)-Thr-Ser-Asp-Bip-Bip-C(O)NH2] (H-HPEGT[αMePhe(2-F)]TSD[Bip][Bip]-NH2)
EC50 [2]: 0.04 nM
